{
  "source": "patent US20250161377A1",
  "about": "“COMPOSITION COMPRISING AT LEAST ONE BIFIDOBACTERIUM STRAIN FOR THE TREATMENT OF VITILIGO” (INSTITUT NATIONAL DE LA SANTE ET DE LA RECHERCHE MEDICALE, priority 2022, published 2025)",
  "tested_on": "Primary human keratinocytes (NHK)",
  "test": "Mitochondrial ROS in keratinocytes, dihydrorhodamine labeling quantified by FACS",
  "assay_type": "cell-based",
  "settings": "NHK pretreated one hour, basal untreated = 100",
  "experimental": "Primary human keratinocytes (NHK) were isolated from the foreskin of healthy children and cultured in a serum-free medium supplemented with bovine pituitary extract (250 μg/mL) and EGF (0.25 ng/mL). The NHKs are then seeded onto 6-well plates and incubated in a controlled atmosphere. When the keratinocytes reach 70 to 80% confluence, the cells are pretreated, or not, for one hour with various components. As a positive control, the NHKs are pretreated for one hour with […] (100 μM). The plates are then washed 3 times with a PBS solution before incubating the pretreated NHKs for one hour in the presence of H2O2 (100 μM) or LPS (100 ng/mL). At the end of the incubation, the cells are incubated in a solution of dihydrorhodamine (5 μM) for 30 minutes at 37° C., which allows for the labeling of ROS, particularly mitochondrial ROS. After 3 washes with a PBS solution, the mitochondrial ROS are quantified by FACS.",
  "data": [
    {"substance": "Sinapine", "values": [
      {"measurement": "Mitochondrial ROS Level (%)", "setting": "no stress treatment (—), sinapine 100 μM", "value": 100, "unit": "%"},
      {"measurement": "Mitochondrial ROS Level (%)", "setting": "then H2O2 (100 μM) one hour, H2O2 alone = 352", "value": 100, "unit": "%"},
      {"measurement": "Mitochondrial ROS Level (%)", "setting": "then LPS (100 ng/mL) one hour, LPS alone = 124", "value": 97, "unit": "%"}
    ]}
  ]
}
